Here are results for eleven compounds from ChEMBL document CHEMBL1201862, “PubChem BioAssay data set” (2004).

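In this assay, cells in 96-well plates receive the compound at five concentrations for 48 hours. Endpoints are linearly interpolated between the surrounding concentrations. GI50 = concentration required for 50% inhibition of growth.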 Active and inactive are the calls of the source. Rule as the data show it: active = GI50 up to about 1.1 µM and inactive = higher.

Test systems include M14; LOX IMVI; SK-MEL-28; U-251; UACC-257; MDA-MB-435; NCI-H23; SK-MEL-2; NCI-H226; T47D; HCC 2998; SK-OV-3; SNB-19; CAKI-1; A549; SK-MEL-5; 786-0; SF-268; HCT-116; IGROV-1.
Assay in all cases: NCI anticancer screen, dose series, 48 h

`CCOC(=O)CCSS(=O)(=O)c1ccccc1`: the GI50 in the assay with M14 is 64.4 µM (inactive); in the assay on LOX IMVI it was 23.3 µM (inactive); in the assay with SK-MEL-28, > 100 µM (inactive); with U-251, > 100 µM (inactive); in the assay on UACC-257, > 100 µM (inactive); in the assay with MDA-MB-435 it was > 100 µM (inactive). The GI50 in the assay with NCI-H23, in the assay with SK-MEL-2, in the assay with NCI-H226, with T47D, in the assay on HCC 2998 and in the assay with SK-OV-3 was > 100 µM (inactive) in each case. The GI50 was > 100 µM (inactive) in the assay with SNB-19; > 100 µM (inactive) with CAKI-1; > 100 µM (inactive) with A549; 62.2 µM (inactive) in the assay with SK-MEL-5; 26 µM (inactive) with 786-0.
With `CCOC(=O)c1c(CN2CCOCC2)n(Cc2ccccc2)c2c1cc(O)c1nc(C)c(C)nc12`, the GI50 was > 100 µM (inactive) with M14; 21.8 µM (inactive) with SF-268; 46.6 µM (inactive) in the assay on LOX IMVI; > 100 µM (inactive) with SK-MEL-28; 27.4 µM (inactive) in the assay on U-251; > 100 µM (inactive) with UACC-257. Further, the GI50 in the assay on MDA-MB-435 was > 100 µM (inactive); in the assay on NCI-H23, 35.5 µM (inactive); in the assay with SK-MEL-2, 20 µM (inactive); with NCI-H226, 45.5 µM (inactive); in the assay with T47D, 20 µM (inactive); with HCC 2998, > 100 µM (inactive). For the same compound, the GI50 with SK-OV-3 is 33.3 µM (inactive); in the assay on SNB-19, 38.2 µM (inactive); in the assay on CAKI-1 it was 22.1 µM (inactive); in the assay on A549, 49 µM (inactive); in the assay with HCT-116, 38.3 µM (inactive); with SK-MEL-5, 22.6 µM (inactive). In addition, the GI50 in the assay with 786-0 is 27.7 µM (inactive).
Regarding `Cc1ccc(Nc2n[nH]c(=S)s2)cc1`, the GI50 in the assay on M14, in the assay on SF-268, in the assay on LOX IMVI, in the assay on SK-MEL-28, with U-251 and in the assay with UACC-257 was > 100 µM (inactive) in each case. In addition, the GI50 is 42.4 µM (inactive) with MDA-MB-435; > 100 µM (inactive) in the assay on NCI-H23; > 100 µM (inactive) with NCI-H226; 96.6 µM (inactive) in the assay on T47D; > 100 µM (inactive) in the assay with HCC 2998; > 100 µM (inactive) in the assay with SK-OV-3. Further, the GI50 is > 100 µM (inactive) in the assay with SNB-19; > 100 µM (inactive) in the assay with CAKI-1; > 100 µM (inactive) in the assay with A549; > 100 µM (inactive) with HCT-116; 99.1 µM (inactive) in the assay with SK-MEL-5; > 100 µM (inactive) in the assay on 786-0.
For `C[C@@]12C[C@@H](c3ccccc3O1)N1CCCCSC1=N2`, the GI50 in the assay on M14, in the assay with IGROV-1, in the assay on SF-268, in the assay on LOX IMVI, with SK-MEL-28 and in the assay on U-251 was > 100 µM (inactive) throughout. The GI50 in the assay on UACC-257, in the assay with MDA-MB-435, in the assay with NCI-H23, in the assay on SK-MEL-2, in the assay with NCI-H226 and in the assay on T47D was > 100 µM (inactive) in each case. Also, the GI50 in the assay on HCC 2998, in the assay with SK-OV-3, with SNB-19, in the assay with CAKI-1, with HCT-116 and in the assay on SK-MEL-5 was > 100 µM (inactive) each time. In addition, the GI50 with 786-0 is > 100 µM (inactive).
For the compound `COc1cc(/C=C2/SC(c3ccccc3)N(c3ccccc3)C2=O)cc(OC)c1OC` (stereo unspecified), the GI50 with M14 was 49.9 µM (inactive); with SF-268 it was > 100 µM (inactive); with LOX IMVI, 69.5 µM (inactive); in the assay on SK-MEL-28 it was > 100 µM (inactive); in the assay on U-251 it was 59.6 µM (inactive); in the assay with UACC-257 it was 61.8 µM (inactive). For the same compound, the GI50 in the assay on MDA-MB-435 is 33.4 µM (inactive); with NCI-H23, 42.5 µM (inactive); with SK-MEL-2, > 100 µM (inactive); in the assay on NCI-H226 it was 80.4 µM (inactive); in the assay on T47D, 36.2 µM (inactive); in the assay on HCC 2998 it was > 100 µM (inactive). In addition, the GI50 with SK-OV-3 is 35.8 µM (inactive); in the assay with SNB-19, > 100 µM (inactive); with CAKI-1, > 100 µM (inactive); with A549, > 100 µM (inactive); in the assay on HCT-116, 15.7 µM (inactive); with SK-MEL-5 it was 12.1 µM (inactive). Further, the GI50 in the assay on 786-0 was > 100 µM (inactive).
As for `COc1ccc(-n2c(N)c(C#N)[nH]c2=O)cc1`, the GI50 in the assay on M14 was > 10 µM (inactive); in the assay with IGROV-1, > 10 µM (inactive); in the assay with SF-268 it was > 10 µM (inactive); with LOX IMVI, 1.79 µM (inactive); in the assay with SK-MEL-28, > 10 µM (inactive); in the assay with U-251, > 10 µM (inactive). Moreover, the GI50 in the assay with UACC-257, in the assay on MDA-MB-435, in the assay on NCI-H23, in the assay with SK-MEL-2, in the assay on NCI-H226 and with T47D was > 10 µM (inactive) in each case. In addition, the GI50 in the assay with HCC 2998, with SK-OV-3, in the assay on SNB-19, with A549, in the assay on HCT-116 and with SK-MEL-5 was > 10 µM (inactive) each time. In the assay on 786-0, the GI50 is > 10 µM (inactive).
Take `CCOC(=O)C1=C(C)N(Cc2ccc(Cl)cc2Cl)C2(O)C=CC(=O)C3C(=O)N(c4ccccc4)C(=O)C132` (stereo unspecified): the GI50 is 3.27 µM (inactive) in the assay on M14; 1.78 µM (inactive) in the assay with IGROV-1; 2.38 µM (inactive) in the assay with SF-268; 0.682 µM (active) in the assay on LOX IMVI; 1.59 µM (inactive) in the assay with SK-MEL-28; 1.67 µM (inactive) with U-251. In addition, the GI50 is 2.2 µM (inactive) with UACC-257; 1.81 µM (inactive) in the assay with MDA-MB-435; 1.63 µM (inactive) in the assay with NCI-H23; 1.77 µM (inactive) in the assay with SK-MEL-2; 1.54 µM (inactive) in the assay on NCI-H226; 1.55 µM (inactive) in the assay with T47D. Further, the GI50 with HCC 2998 is 1.71 µM (inactive); with SNB-19, 1.88 µM (inactive); with CAKI-1 it was 3.02 µM (inactive); in the assay with A549, 2.11 µM (inactive); in the assay on HCT-116 it was 3.11 µM (inactive); in the assay with SK-MEL-5, 2.09 µM (inactive). The GI50 in the assay with 786-0 was 3.24 µM (inactive).
`CNc1ccc(Cl)cc1C(=O)N1CCC[C@H]1CO`: the GI50 in the assay on M14 was > 100 µM (inactive); in the assay with IGROV-1, > 84.7 µM (inactive); in the assay on SF-268, > 100 µM (inactive); with LOX IMVI, > 100 µM (inactive); with SK-MEL-28, > 100 µM (inactive); in the assay on U-251, > 100 µM (inactive). Besides, the GI50 with UACC-257 was > 100 µM (inactive); with MDA-MB-435 it was > 100 µM (inactive); in the assay on NCI-H23 it was > 100 µM (inactive); in the assay on SK-MEL-2, > 100 µM (inactive); in the assay on NCI-H226, > 96.4 µM (inactive); in the assay on T47D, > 100 µM (inactive). The GI50 with HCC 2998, in the assay on SK-OV-3, in the assay on SNB-19, in the assay with CAKI-1, in the assay on A549 and with HCT-116 was > 100 µM (inactive) throughout. Further, the GI50 in the assay on 786-0 was > 100 µM (inactive).
For `O=c1[nH]c(=O)n(C2OC(CO)C(O)C2O)cc1OCCc1ccccc1` (stereo unspecified), the GI50 in the assay with M14, in the assay on IGROV-1, with SF-268, in the assay with LOX IMVI, in the assay on SK-MEL-28 and in the assay with UACC-257 was > 100 µM (inactive) each time. In addition, the GI50 with MDA-MB-435, in the assay with NCI-H23, in the assay on SK-MEL-2, with NCI-H226, in the assay on T47D and in the assay on HCC 2998 was > 100 µM (inactive) in each case. The GI50 with SK-OV-3, with SNB-19, in the assay on CAKI-1, in the assay with A549, in the assay with HCT-116 and in the assay on SK-MEL-5 was > 100 µM (inactive) each time. Also, the GI50 in the assay on 786-0 was > 100 µM (inactive).
Regarding `Oc1cccc2ccc(Br)nc12`, the GI50 with M14, in the assay on IGROV-1, in the assay with SF-268, in the assay on LOX IMVI, in the assay with SK-MEL-28 and in the assay with U-251 was > 100 µM (inactive) throughout. Besides, the GI50 with UACC-257 was > 100 µM (inactive); in the assay with MDA-MB-435, > 100 µM (inactive); in the assay with NCI-H23 it was > 100 µM (inactive); in the assay with NCI-H226 it was > 100 µM (inactive); in the assay with T47D it was 51.6 µM (inactive); in the assay on HCC 2998, 63 µM (inactive). For the same compound, the GI50 in the assay with SK-OV-3, in the assay with SNB-19, in the assay on CAKI-1, in the assay with A549, in the assay with HCT-116 and in the assay on SK-MEL-5 was > 100 µM (inactive) each time. Also, in the assay with 786-0, the GI50 is > 100 µM (inactive).
As to `CC(C)[C@@H]1ON1C(C)c1ccccc1` (stereo partly specified), the GI50 in the assay with M14 is > 100 µM (inactive); in the assay on IGROV-1, 70.6 µM (inactive); in the assay with SF-268, > 100 µM (inactive); with LOX IMVI it was > 100 µM (inactive); with SK-MEL-28, > 100 µM (inactive); with U-251 it was > 100 µM (inactive). The GI50 in the assay on UACC-257, in the assay with MDA-MB-435, with NCI-H23, with NCI-H226, with T47D and in the assay on HCC 2998 was > 100 µM (inactive) throughout. Also, the GI50 in the assay on SK-OV-3 is > 100 µM (inactive); in the assay on SNB-19, > 100 µM (inactive); in the assay on CAKI-1, 17.1 µM (inactive); with A549, > 100 µM (inactive); with HCT-116, > 100 µM (inactive); in the assay with SK-MEL-5 it was > 100 µM (inactive). Also, the GI50 with 786-0 was > 100 µM (inactive).
